The values that follow come from ChEMBL document CHEMBL5584244, “Discovery of novel pyrrolo[2,1-c][1,4]benzodiazepine-3,11-dione (PBD) derivatives as selective HDAC6 inhibitors for the efficient treatment of idiopathic pulmonary fibrosis (IPF) in vitro and in vivo” (Eur J Med Chem, 2024).

The species entered for one series is Homo sapiens. Kind of series: Selectivity index, ratio IC50 for C-terminal His6/Flag-tagged recombinant human full length HDAC1 to IC50 for inhibition of recombinant human full length HDAC6.
Series [1] deals with Mus musculus. The series is described as follows: Anti-pulmonary fibrosis activity in bleomycin-induced C57BL/6 mouse model of pulmonary fibrosis assessed as decrease in thickening of the alveolar wall in lung at 50 to 100 mg/kg, ip for 3 weeks by Masson trichrome staining based microscopic analysis. As to conditions: dose 50-100 mg/kg. The format is functional, organism-based.

Series [2] deals with T1, Protein deacetylase HDAC6 (Homo sapiens) (UniProt Q9UBN7).
T1 sequence (whole entry): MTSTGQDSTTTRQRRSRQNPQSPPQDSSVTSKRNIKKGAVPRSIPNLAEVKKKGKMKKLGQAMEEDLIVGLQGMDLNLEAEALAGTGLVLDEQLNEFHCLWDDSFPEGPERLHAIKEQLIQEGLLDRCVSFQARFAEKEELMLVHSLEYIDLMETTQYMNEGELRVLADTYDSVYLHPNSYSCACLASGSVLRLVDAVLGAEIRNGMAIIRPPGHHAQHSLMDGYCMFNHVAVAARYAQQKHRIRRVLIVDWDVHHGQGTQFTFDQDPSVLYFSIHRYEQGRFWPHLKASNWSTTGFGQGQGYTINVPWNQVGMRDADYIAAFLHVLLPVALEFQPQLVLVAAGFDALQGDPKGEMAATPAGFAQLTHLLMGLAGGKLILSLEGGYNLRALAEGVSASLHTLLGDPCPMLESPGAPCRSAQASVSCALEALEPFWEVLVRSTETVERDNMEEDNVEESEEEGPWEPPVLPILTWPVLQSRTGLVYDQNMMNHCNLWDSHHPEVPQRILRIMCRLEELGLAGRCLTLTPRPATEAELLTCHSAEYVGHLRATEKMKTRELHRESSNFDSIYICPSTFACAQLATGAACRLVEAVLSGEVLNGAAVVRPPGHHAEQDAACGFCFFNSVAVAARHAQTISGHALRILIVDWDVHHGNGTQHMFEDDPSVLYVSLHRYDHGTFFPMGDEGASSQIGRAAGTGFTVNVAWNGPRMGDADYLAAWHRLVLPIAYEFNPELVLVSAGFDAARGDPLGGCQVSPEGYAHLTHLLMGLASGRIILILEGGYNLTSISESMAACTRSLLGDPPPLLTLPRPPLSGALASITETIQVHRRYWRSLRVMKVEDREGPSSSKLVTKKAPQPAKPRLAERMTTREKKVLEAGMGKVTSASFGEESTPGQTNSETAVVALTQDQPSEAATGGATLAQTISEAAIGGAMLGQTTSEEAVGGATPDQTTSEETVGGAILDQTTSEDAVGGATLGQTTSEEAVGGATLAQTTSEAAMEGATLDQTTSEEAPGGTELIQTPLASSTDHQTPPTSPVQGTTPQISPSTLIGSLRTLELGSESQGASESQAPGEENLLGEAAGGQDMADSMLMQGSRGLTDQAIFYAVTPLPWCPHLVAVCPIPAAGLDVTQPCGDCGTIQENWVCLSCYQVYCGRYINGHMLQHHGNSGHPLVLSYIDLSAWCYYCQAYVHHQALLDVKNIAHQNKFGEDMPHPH
The series is described as follows: Inhibition of HDAC6 in TGF-beta1-induced HELF cells by fluorescence based microplate reader analysis. Type of series: cell-based. The note with it: dose 2.5-10 µM.

In series [3] the target is T1, Protein deacetylase HDAC6 (Homo sapiens). The series is described as follows: Inhibition of HDAC6 in TGF-beta1-induced HELF cells assessed as upregulation of acetylated alpha-tubulin level by Western blot analysis. The format is cell-based. As to conditions: dose 2.5-10 µM. For orientation: In western blotting, separated proteins are transferred to a membrane and probed.

In series [4] the test system is Mus musculus. Kind of series: Anti-pulmonary fibrosis activity in bleomycin-induced ip dosed C57BL/6 mouse model of pulmonary fibrosis assessed as inhibition of Smad2 protein phosphorylation level in lung for 3 weeks by immunohistochemical analysis. Type of series: functional, organism-based. As to conditions: dose 50-100 mg/kg.
The target of another series is T2, Histone deacetylase 7 (Homo sapiens, UniProt Q8WUI4).
T2 sequence (Q8WUI4 whole entry): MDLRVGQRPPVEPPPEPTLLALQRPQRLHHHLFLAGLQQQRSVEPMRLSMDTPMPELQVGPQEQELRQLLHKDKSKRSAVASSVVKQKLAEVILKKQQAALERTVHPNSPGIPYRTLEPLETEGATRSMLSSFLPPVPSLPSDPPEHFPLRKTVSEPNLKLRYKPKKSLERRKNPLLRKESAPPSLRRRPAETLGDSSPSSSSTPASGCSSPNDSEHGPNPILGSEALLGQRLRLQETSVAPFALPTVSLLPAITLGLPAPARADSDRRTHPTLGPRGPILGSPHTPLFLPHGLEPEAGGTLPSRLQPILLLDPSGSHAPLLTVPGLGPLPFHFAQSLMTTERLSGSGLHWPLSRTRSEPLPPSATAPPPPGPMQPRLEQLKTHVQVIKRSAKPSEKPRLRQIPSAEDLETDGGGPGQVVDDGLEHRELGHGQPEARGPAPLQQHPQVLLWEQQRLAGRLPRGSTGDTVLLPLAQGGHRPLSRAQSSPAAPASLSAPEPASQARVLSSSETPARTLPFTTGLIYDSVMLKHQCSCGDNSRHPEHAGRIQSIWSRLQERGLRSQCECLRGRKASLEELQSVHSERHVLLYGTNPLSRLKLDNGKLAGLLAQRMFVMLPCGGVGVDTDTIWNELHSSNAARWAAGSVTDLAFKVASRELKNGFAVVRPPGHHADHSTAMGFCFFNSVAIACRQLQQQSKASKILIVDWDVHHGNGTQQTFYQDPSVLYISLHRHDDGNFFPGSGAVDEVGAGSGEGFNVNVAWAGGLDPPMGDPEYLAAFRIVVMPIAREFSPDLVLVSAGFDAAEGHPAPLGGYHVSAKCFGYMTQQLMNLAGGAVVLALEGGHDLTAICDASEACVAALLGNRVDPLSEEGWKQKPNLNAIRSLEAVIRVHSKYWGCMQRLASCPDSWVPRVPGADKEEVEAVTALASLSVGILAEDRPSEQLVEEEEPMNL
The series is described as follows: Inhibition of N-terminal GST-tagged recombinant human HDAC7 (518 to end residues) expressed in baculovirus expression system using Boc-Lys (Tfa)-AMC as substrate incubated for 120 mins by fluorescence analysis.

In series [5] the target is Mothers against decapentaplegic homolog 3 (Homo sapiens) (UniProt P84022). Kind of series: Inhibition of TGF-beta1-induced Smad3 protein phosphorylation level in HELF cells incubated for 48 hrs by Western blot analysis. The format is cell-based. As to conditions: dose 2.5-10 µM.
The target in the next series is Histone deacetylase 1 (Homo sapiens, UniProt Q13547). Kind of series: Inhibition of C-terminal His6/Flag-tagged recombinant human full length HDAC1 using Boc-Lys (Ac)-AMC as substrate incubated for 120 mins by fluorescence analysis.
Series [6] concerns HELF. The series is described as follows: Anti-pulmonary fibrosis activity against TGF-beta1-induced HELF cells assessed as reduction in alpha-SMA protein expression incubated for 48 hrs by Western blot analysis. The format is functional, cell-based. The note with it: Homo sapiens, dose 2.5-10 µM.
In series [7] the test system is HELF. Kind of series: Anti-pulmonary fibrosis activity against TGF-beta1-induced HELF cells assessed as reduction in COL1A1 protein expression incubated for 48 hrs by Western blot analysis. Type of series: functional, cell-based. As to conditions: Homo sapiens, dose 2.5-10 µM.
Series [8] is described as follows: Stability of compound in human plasma assessed as remaining parent compound at 2 uM incubated for 120 mins by LC-MS/MS analysis. The format is ADME, cell-free. The note with it: read-out: Stability.

The structures appear in SMILES notation. Active and inactive are the calls of the source. The rule behind the calls is not given here.

Histone deacetylase 1, sequence (Q13547 whole entry): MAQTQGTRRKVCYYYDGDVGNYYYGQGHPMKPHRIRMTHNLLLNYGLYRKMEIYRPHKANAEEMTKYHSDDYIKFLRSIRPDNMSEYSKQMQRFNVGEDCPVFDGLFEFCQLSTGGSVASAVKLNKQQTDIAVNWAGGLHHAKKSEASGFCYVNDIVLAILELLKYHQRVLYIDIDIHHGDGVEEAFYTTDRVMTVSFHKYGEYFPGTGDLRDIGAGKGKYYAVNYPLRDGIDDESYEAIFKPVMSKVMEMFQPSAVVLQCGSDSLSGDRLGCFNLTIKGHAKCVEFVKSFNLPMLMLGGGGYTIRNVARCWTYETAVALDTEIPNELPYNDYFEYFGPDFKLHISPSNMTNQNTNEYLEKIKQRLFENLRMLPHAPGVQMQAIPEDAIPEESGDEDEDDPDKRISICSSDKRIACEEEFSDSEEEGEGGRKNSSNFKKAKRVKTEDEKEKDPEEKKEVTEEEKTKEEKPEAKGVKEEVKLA
Mothers against decapentaplegic homolog 3 (Homo sapiens), sequence (P84022 2-425 limits assumed): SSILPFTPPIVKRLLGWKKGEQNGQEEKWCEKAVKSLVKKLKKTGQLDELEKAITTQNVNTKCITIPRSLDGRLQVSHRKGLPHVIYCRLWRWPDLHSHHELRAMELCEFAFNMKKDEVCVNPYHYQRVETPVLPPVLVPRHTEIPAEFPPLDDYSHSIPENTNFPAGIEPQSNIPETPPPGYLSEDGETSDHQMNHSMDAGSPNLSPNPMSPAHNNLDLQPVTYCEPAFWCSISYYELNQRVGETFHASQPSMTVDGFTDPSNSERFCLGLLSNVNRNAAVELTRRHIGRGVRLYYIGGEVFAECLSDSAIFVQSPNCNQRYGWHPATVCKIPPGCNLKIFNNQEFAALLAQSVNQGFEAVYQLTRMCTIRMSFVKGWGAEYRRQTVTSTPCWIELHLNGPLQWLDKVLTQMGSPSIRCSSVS

Take `CC(=O)O.O=C(NO)c1ccc(CN2C(=O)[C@@H]3CCCN3Cc3ccccc32)cc1`: the Ratio IC50 in the series listed under Homo sapiens came to 97.9. Besides, the result with Mus musculus [1] was inactive. Further, the inhibition result (in series [2]; in series [3]; in the series on Mus musculus [4]; in series [5]) was “Dose-Dependent Effect” in each case. Further, the IC50 at Histone deacetylase 7 came out at 8.94 nM; on Histone deacetylase 1, 878 nM. Also, the Activity result in the series on HELF [6] and in the series on HELF [7] was “Dose-Dependent Effect” each time. Besides, the remaining at 2 h, 2 µM in [8] came out at 92.3%.

For orientation: IC50 means the concentration that inhibits the measured activity by half.
